In patent publication US4963542A, “Cephalosporin derivatives” (Takeda Chemical Industries, Ltd., priority 1976, dated 1990):

Key:
[1] = system: Citrobacter freundii GN1706; assay: Minimal inhibitory concentration, agar serial dilution; type: cell-based; settings: TSA, inoculum 10^7 /ml
Description: (§1) (a) Minimal inhibitory concentrations (Table 1 and 2)
(§2) Method: Agar serial dilution

[2] = system: Citrobacter freundii GN99; assay: as above; type: cell-based; settings: TSA, inoculum 10^7 /ml
Description: as §1, §2

[3] = system: Enterobacter cloacae TN1282; assay: as above; type: cell-based; settings: TSA, inoculum 10^7 /ml
Description: as §1, §2

Escherichia coli 0-111 [4] = assay: as above; type: cell-based; settings: TSA, inoculum 10^7 /ml
Description: as §1, §2

[5] = system: Escherichia coli NIHJ JC-2; assay: as above; type: cell-based; settings: TSA, inoculum 10^7 /ml
Description: as §1, §2

Escherichia coli T-7 = assay: as above; type: cell-based; settings: TSA, inoculum 10^7 /ml
Description: as §1, §2

Klebsiella pneumoniae DT = assay: as above; type: cell-based; settings: TSA, inoculum 10^7 /ml
Description: as §1, §2

[6] = system: Klebsiella pneumoniae GN-3835; assay: as above; type: cell-based; settings: TSA, inoculum 10^7 /ml
Description: as §1, §2

Proteus mirabilis GN4359 = assay: as above; type: cell-based; settings: TSA, inoculum 10^7 /ml
Description: as §1, §2

Proteus morganii IFO3168 = assay: as above; type: cell-based; settings: TSA, inoculum 10^7 /ml
Description: as §1, §2

Proteus rettgeri GN4733 = assay: as above; type: cell-based; settings: TSA, inoculum 10^7 /ml
Description: as §1, §2

Proteus rettgeri TN338 = assay: as above; type: cell-based; settings: TSA, inoculum 10^7 /ml
Description: as §1, §2

Proteus vulgaris GN4413 = assay: as above; type: cell-based; settings: TSA, inoculum 10^7 /ml
Description: as §1, §2

[7] = system: Proteus vulgaris IFO 3988; assay: as above; type: cell-based; settings: TSA, inoculum 10^7 /ml
Description: as §1, §2

[8] = system: Serratia marcescens IFO 12648; assay: as above; type: cell-based; settings: TSA, inoculum 10^7 /ml
Description: as §1, §2

Serratia marcescens TN24 = assay: as above; type: cell-based; settings: TSA, inoculum 10^7 /ml
Description: as §1, §2

[9] = system: Staphylococcus aureus 1840; assay: as above; type: cell-based; settings: TSA, inoculum 10^7 /ml
Description: as §1, §2

[10] = system: Staphylococcus aureus 209P; assay: as above; type: cell-based; settings: TSA, inoculum 10^7 /ml
Description: as §1, §2

Escherichia coli 0-111 [11] = assay: Therapeutic effects on infected mice; type: in vivo, Male mouse, ICR/SLC; settings: Escherichia coli, 0111, sc, 168 h, s.c. single dose immediately after intraperitoneal infection, 7 days observation
Protocol: The therapeutic efficacies of several representative compounds [I] of this invention and of cephaloridine on infected mice are also set forth in the tables.
(b) Therapeutic effects on infected mice (Table 3 and Table 4)
Test animal: Male mouse, ICR/SLC
A group of five animals was employed per drug.
Route of infection: Intraperitoneal
Infectious bacteria: Escherichia coli 0-111
Period of observation: 7 days
Method of administration: Test compound (1 mg, 10 mg, 100 mg or 200 mg) was dissolved in sterile saline solution (100 ml) and 0.2 ml of the solution was administered subcutaneously as a single dose immediately after infection. Two fold dilutions of each solution were administered to five groups of 5 mice each.

O=C(Cc1cccs1)N[C@@H]1C(=O)N2C(C(=O)[O-])=C(C[n+]3ccccc3)CS[C@H]12 [Cephaloridine, 7-(2-thienylacetamido)-3-(1-pyridyl)methyl-3-cephem-4-carboxylic acid betaine, reference compound]
Minimal inhibitory concentration (MIC) [1]: > 100 | Minimal inhibitory concentration (MIC) [2]: 50 | Minimal inhibitory concentration (MIC) [3]: > 100 | Minimal inhibitory concentration (MIC) (Escherichia coli 0-111 [4]): 1.56 | Minimal inhibitory concentration (MIC) [5]: 3.13 | Minimal inhibitory concentration (MIC) (Escherichia coli T-7): > 100 | Minimal inhibitory concentration (MIC) (Klebsiella pneumoniae DT): 1.56 | Minimal inhibitory concentration (MIC) [6]: 12.5 | Minimal inhibitory concentration (MIC) (Proteus mirabilis GN4359): 6.25 | Minimal inhibitory concentration (MIC) (Proteus morganii IFO3168): > 100 | Minimal inhibitory concentration (MIC) (Proteus rettgeri GN4733): > 100 | Minimal inhibitory concentration (MIC) (Proteus rettgeri TN338): 1.56 | Minimal inhibitory concentration (MIC) (Proteus vulgaris GN4413): > 100 | Minimal inhibitory concentration (MIC) [7]: 6.25 | Minimal inhibitory concentration (MIC) [8]: > 100 | Minimal inhibitory concentration (MIC) (Serratia marcescens TN24): > 100 | Minimal inhibitory concentration (MIC) [9]: 0.39 | Minimal inhibitory concentration (MIC) [10]: 0.05 | ED50 (Escherichia coli 0-111 [11]; Table 3): 2.6 mg/kg | ED50 (Escherichia coli 0-111 [11]; Table 4): 1.81 mg/kg

CC(=O)OCC1=C(C(=O)O)N2C(=O)C(NC(=O)/C(=N\O)c3csc(=N)[nH]3)C2SC1 (stereo not drawn) [Example 5, sodium 7-[2-(2-imino-4-thiazolin-4-yl)-2-hydroxyimino-acetamido]-3-acetoxymethyl-3-cephem-4-carboxylate (syn-isomer)]
Minimal inhibitory concentration (MIC) [1]: 0.10 | Minimal inhibitory concentration (MIC) [2]: 0.05 | Minimal inhibitory concentration (MIC) [3]: 6.25 | Minimal inhibitory concentration (MIC) (Escherichia coli 0-111 [4]): ≤ 0.012 | Minimal inhibitory concentration (MIC) [5]: 0.024 | Minimal inhibitory concentration (MIC) (Escherichia coli T-7): 0.39 | Minimal inhibitory concentration (MIC) (Klebsiella pneumoniae DT): ≤ 0.012 | Minimal inhibitory concentration (MIC) [6]: 0.05 | Minimal inhibitory concentration (MIC) (Proteus mirabilis GN4359): 0.05 | Minimal inhibitory concentration (MIC) (Proteus morganii IFO3168): 0.20 | Minimal inhibitory concentration (MIC) (Proteus rettgeri GN4733): 0.024 | Minimal inhibitory concentration (MIC) (Proteus rettgeri TN338): ≤ 0.012 | Minimal inhibitory concentration (MIC) (Proteus vulgaris GN4413): 12.5 | Minimal inhibitory concentration (MIC) [7]: 0.05 | Minimal inhibitory concentration (MIC) [8]: 6.25 | Minimal inhibitory concentration (MIC) (Serratia marcescens TN24): 1.56 | Minimal inhibitory concentration (MIC) [9]: 0.39 | Minimal inhibitory concentration (MIC) [10]: 0.39 | ED50 (Escherichia coli 0-111 [11]; Table 3): 0.033 mg/kg

Cn1nnnc1SCC1=C(C(=O)O)N2C(=O)C(NC(=O)/C(=N\O)c3csc(=N)[nH]3)C2SC1 (stereo not drawn) [Example 12, sodium 7-[2-(2-imino-4-thiazolin-4-yl)-2-hydroxyimino-acetamido]-3-(1-methyl-1H-tetrazol-5-yl)thiomethyl-3-cephem-4-carboxylate (syn-isomer)]
Minimal inhibitory concentration (MIC) [1]: 0.10 | Minimal inhibitory concentration (MIC) [2]: 0.05 | Minimal inhibitory concentration (MIC) [3]: 1.56 | Minimal inhibitory concentration (MIC) (Escherichia coli 0-111 [4]): ≤ 0.012 | Minimal inhibitory concentration (MIC) [5]: 0.05 | Minimal inhibitory concentration (MIC) (Escherichia coli T-7): 0.78 | Minimal inhibitory concentration (MIC) (Klebsiella pneumoniae DT): 0.024 | Minimal inhibitory concentration (MIC) [6]: 0.10 | Minimal inhibitory concentration (MIC) (Proteus mirabilis GN4359): 0.10 | Minimal inhibitory concentration (MIC) (Proteus morganii IFO3168): 0.024 | Minimal inhibitory concentration (MIC) (Proteus rettgeri GN4733): 0.05 | Minimal inhibitory concentration (MIC) (Proteus rettgeri TN338): ≤ 0.012 | Minimal inhibitory concentration (MIC) (Proteus vulgaris GN4413): 6.25 | Minimal inhibitory concentration (MIC) [7]: 0.05 | Minimal inhibitory concentration (MIC) [8]: 0.78 | Minimal inhibitory concentration (MIC) (Serratia marcescens TN24): 0.39 | Minimal inhibitory concentration (MIC) [9]: 0.78 | Minimal inhibitory concentration (MIC) [10]: 0.39 | ED50 (Escherichia coli 0-111 [11]; Table 3): 0.028 mg/kg

Cn1cnnc1SCC1=C(C(=O)O)N2C(=O)C(NC(=O)/C(=N\O)c3csc(=N)[nH]3)C2SC1 (stereo not drawn) [Example 15, sodium 7-[2-(2-imino-4-thiazolin-4-yl)-2-hydroxyimino-acetamido]-3-(4-methyl-1,2,4-triazol-3-yl)thiomethyl-3-cephem-4-carboxylate (syn-isomer)]
Minimal inhibitory concentration (MIC) [1]: 0.05 | Minimal inhibitory concentration (MIC) [2]: 0.05 | Minimal inhibitory concentration (MIC) [3]: 1.56 | Minimal inhibitory concentration (MIC) (Escherichia coli 0-111 [4]): ≤ 0.012 | Minimal inhibitory concentration (MIC) [5]: 0.024 | Minimal inhibitory concentration (MIC) (Escherichia coli T-7): 0.39 | Minimal inhibitory concentration (MIC) (Klebsiella pneumoniae DT): 0.024 | Minimal inhibitory concentration (MIC) [6]: 0.05 | Minimal inhibitory concentration (MIC) (Proteus mirabilis GN4359): 0.10 | Minimal inhibitory concentration (MIC) (Proteus morganii IFO3168): 0.024 | Minimal inhibitory concentration (MIC) (Proteus rettgeri GN4733): 0.10 | Minimal inhibitory concentration (MIC) (Proteus rettgeri TN338): ≤ 0.012 | Minimal inhibitory concentration (MIC) (Proteus vulgaris GN4413): 3.13 | Minimal inhibitory concentration (MIC) [7]: 0.05 | Minimal inhibitory concentration (MIC) [8]: 0.78 | Minimal inhibitory concentration (MIC) (Serratia marcescens TN24): 0.78 | Minimal inhibitory concentration (MIC) [9]: 0.78 | Minimal inhibitory concentration (MIC) [10]: 0.78 | ED50 (Escherichia coli 0-111 [11]; Table 4): 0.016 mg/kg

Cc1nnc(SCC2=C(C(=O)O)N3C(=O)C(NC(=O)/C(=N\O)c4csc(=N)[nH]4)C3SC2)s1 (stereo not drawn) [Example 16, sodium 7-[2-(2-imino-4-thiazolin-4-yl)-2-hydroxyimino-acetamido]-3-(2-methyl-1,3,4-thiadiazol-5-yl)thiomethyl-3-cephem-4-carboxylate (syn-isomer)]
Minimal inhibitory concentration (MIC) [1]: 0.20 | Minimal inhibitory concentration (MIC) [2]: 0.10 | Minimal inhibitory concentration (MIC) [3]: 6.25 | Minimal inhibitory concentration (MIC) (Escherichia coli 0-111 [4]): 0.024 | Minimal inhibitory concentration (MIC) [5]: 0.10 | Minimal inhibitory concentration (MIC) (Escherichia coli T-7): 1.56 | Minimal inhibitory concentration (MIC) (Klebsiella pneumoniae DT): 0.05 | Minimal inhibitory concentration (MIC) [6]: 0.20 | Minimal inhibitory concentration (MIC) (Proteus mirabilis GN4359): 0.20 | Minimal inhibitory concentration (MIC) (Proteus morganii IFO3168): 0.05 | Minimal inhibitory concentration (MIC) (Proteus rettgeri GN4733): 0.10 | Minimal inhibitory concentration (MIC) (Proteus rettgeri TN338): ≤ 0.012 | Minimal inhibitory concentration (MIC) (Proteus vulgaris GN4413): 6.25 | Minimal inhibitory concentration (MIC) [7]: 0.10 | Minimal inhibitory concentration (MIC) [8]: 3.13 | Minimal inhibitory concentration (MIC) (Serratia marcescens TN24): 0.78 | Minimal inhibitory concentration (MIC) [9]: 0.78 | Minimal inhibitory concentration (MIC) [10]: 0.39 | ED50 (Escherichia coli 0-111 [11]; Table 4): 0.035 mg/kg
